No end group written: not given here.
Experiments:
Type in all cases: cell-based, human
[1] = tested on: PBL; assay: Proliferation of PBL, direct presentation of peptide without APC; conditions: for PBL Index of stimulation (SI) Direct no APC: naive donors, representative of 5 experiments; for Optimal dose Direct no APC: optimal dose required for PBL activation, six donors; for Optimal dose Direct no APC / Peak of Proliferation (Hours) Direct no APC: average of 5 experiments; for Peak of Proliferation (Hours) Direct no APC: visual inspection daily during 5 days
Procedure: In all three methods, plates were cultured for 3-5 days under visual control and then 0.5 □Cu/well of 3[H] (Amersham) was added for additional culture of to 18 h at 37° C. […] DC indirect presentation: In the first method, 100 µl of 2×10^6 thawed PBL were placed in U-shape Bottom 96 well plate (Nunc) with RPMI medium supplemented with 5% H AB serum, L-Glutamine, Sodium Pyruvate, MEM-EAGLE non-essential amino-acids, HEPES and Gentamycin. At the next stage 100 µl of 25×10^4 peptide-pulsed DC were added to each three wells of PBL and underwent proliferation analysis as described above. • 2. PBL direct presentation: In the 2nd method, 100 µl of 2×10^6 PBL were placed in Flat Bottom 96 well plates (Corning) and stimulated with different concentrations (0.05 ug/ml-2 ug/ml) of peptides. In the next step the cells underwent proliferation analysis as described above. • 3. PBMC direct presentation: In third method PNMC were used under similar conditions as described for the second method.
Direct presentation of peptides to PBL without any APC

[2] = tested on: PBMC; assay: Proliferation, direct presentation of peptide via PBMC (monocytes); conditions: for PBL Index of stimulation (SI) via PBMC: naive donors, representative of 5 experiments; for Optimal dose via PBMC: optimal dose required for PBL activation, six donors; for Optimal dose via PBMC / Peak of Proliferation (Hours) via PBMC: average of 5 experiments; for Peak of Proliferation (Hours) via PBMC: visual inspection daily during 5 days
Procedure: (§1) Proliferation analysis was conducted in three different methods. In all three methods, plates were cultured for 3-5 days under visual control and then 0.5 […]Cu/well of 3[H] (Amersham) was added for additional culture of to 18 h at 37° C. In the last step, plates were harvested and the radioactive counts were measured in a □ counter. • 1. DC indirect presentation: In the first method, 100 µl of 2×10^6 thawed PBL were placed in U-shape Bottom 96 well plate (Nunc) with RPMI medium supplemented with 5% H AB serum, L-Glutamine, Sodium Pyruvate, MEM-EAGLE non-essential amino-acids, HEPES and Gentamycin. At the next stage 100 µl of 25×10^4 peptide-pulsed DC were added to each three wells of PBL and underwent proliferation analysis as described above. • 2. PBL direct presentation: In the 2nd method, 100 µl of 2×10^6 PBL were placed in Flat Bottom 96 well plates (Corning) and stimulated with different concentrations (0.05 ug/ml-2 ug/ml) of peptides. In the next step the cells underwent proliferation analysis as described above. • 3. PBMC direct presentation: In third method PNMC were used under similar conditions as described for the second method.
b. Direct presentation of the peptides via PBMC i.e. monocytes
(§2) Five experiments were performed according to the protocol described in material and methods with buffy-coat enriched PBLs obtained from six different naive donors (obtained from the Israeli blood bank).

[3] = tested on: PBL; assay: Proliferation of PBL, DC indirect presentation (peptide-pulsed autologous DC); conditions: for PBL Index of stimulation (SI) via DC: naive donors, CPM sample / CPM control, representative of 5 experiments; for Optimal dose via DC: optimal dose required for PBL activation; for Optimal dose via DC / Peak of Proliferation (Hours) via DC: average of 5 experiments; for Optimal dose via DC / IS (SI of the peptides as indicated in Table 7): six donors; for Peak of Proliferation (Hours) via DC: visual inspection by light microscopy daily during 5 days; for IS (SI of the peptides as indicated in Table 7): one out of five experiments
Procedure: (§3) Human PBMC were separated from buffy coat samples of naive donors using Ficoll UNI-SEPmaxi tube. Separated cells were suspended in RPMI medium supplemented with 10% FCS, L-Glutamine, Sodium Pyruvate, MEM-EAGLE non-essential amino-acids, HEPES and Gentamycin Sulphate (Bet-Haemek Industries, IL) and cultivated for 4 h at 37° C. in a culture dish (Corning 150 mm×25 mm). Adherent cells were collected and cultured for 7 days in serum free DCCM-1 medium supplemented with L-Glutamine, huIL-4 (1000 IU/ml) (Cytolab IL) and GM-CSF-80 ug/ml (Cytolab IL). On day seven floating cells were collected and loaded with 50 ug/ml of examined peptide for 18 h at 37° C.
as §1
In the first set of experiments, the 21mer ImMucin, its different 9mer epitopes and other control epitopes (Table 3) were evaluated in proliferation assays with the aim of finding their optimal mode of presentation, stimulated dose as well as their peak of activity (time wise).
To evaluate the most efficient method for priming of PBLs with the different peptides, the following methods were compared:
a. In-direct presentation of the peptide via Autologues-pulsed DC
as §2

[4] = tested on: lymphocytes from naive donors; assay: Proliferation assay, kinetics of lymphocyte activation as summarised in text (presentation mode not stated); conditions: summary of five experiments
Procedure: as §1
A different parameter for assessing the properties of ImMucin and the other VXL-peptide epitopes is by analyzing the time until a maximal peak of activity occurs and the optimal dose for maximal stimulation. Maximal peak of PBL activation is determined when <50% of the PBLs appear in clumps. In these experiments, the kinetic (time) in the proliferation of lymphocytes from the six naive donors stimulated at a fix dose of 0.05-1 ug/ml by ImMucin and other VXL-Peptides, was observed.

[5] = tested on: ImMucin specific T-cell subpopulation; assay: Proliferation of the ImMucin-specific T-cell subpopulation after three stimulations; conditions: one out of two experiments, four donors
Description: (§4) Thawed PBLs underwent 1st stimulation with ImMucin pulsed Autologues DC at a ratio of 20:1 and cultured for 7 days in dedicated T cell Medium. T cell medium contained RPMI medium supplemented with 10% FCS, L-Glutamine, Sodium Pyruvate, MEM-EAGLE non-essential amino-acids, HEPES and Gentamycin Sulphate (Bet-Haemek Industries, IL) as well as with 50 IU/ml of recombinant IL-7 (Cytolab IL). For the second stimulation, PBL were transferred to adherent autologues ImMucin-pulsed PBMC and cultured for additional 5 days in T cell Medium. At the end of the 5 days, medium was partial replaced with fresh medium containing 1 ug/ml of ImMucin and 50 IU/ml IL-2 for a third stimulation of 48 h at 37° C. Following the last stimulation ImMucin T cell line was checked for immune activation properties.
as §1
(§5) For that purpose, an enriched ImMucin-specific T cell subpopulation was produced via repeated stimulation with ImMucin. The specificity of the subpopulation for ImMucin, as well as to the other VXL epitopes, was examined using proliferation assays, cytokine release assays, FACS analysis in which the percentage and type of cells enriched during the enrichment process was analyzed, and using a CTL assay against selected target cells.
(§6) For producing the specific T cell subpopulation PBL were stimulated three times for 7, 5 and 2 days with ImMucin presented via DC and PBMC. Following the 3rd stimulation the cells were evaluated against the different VXL epitopes.

[6] = tested on: PBL; assay: ELISA of cytokine secretion by PBL stimulated once with peptide-pulsed DC; conditions: peptide DC ratio 16:1, one out of five experiments, six donors
Procedure: as §3
(§7) Cytokine release was studied during the culture of stimulated T-cells. The evaluated samples were collected from the T cell culture medium on day 2, 3, and 5 and stored until use at −20° C.
(§8) […] of the selected capture antibody (e.g. anti-Hu IFN-Gamma, or anti-Hu TNF-alfa or anti IL-2) were added to each well at the final concentration of 5 μg/ml in PBS. Plates were incubated for 2 h at R.T. or over night at 4° C. Next, […] of blocking solution were added for an incubation of 2 h at R.T. […] of evaluated samples were added in duplicate into 2 wells for 2 hours at RT. After 2 h of incubation at R.T plates were washed λ4 times in washing solution. In the next step, a Biotin-conjugated detection antibody (relevant to coated antibody) was added at a final concentration of 10 μg/ml in total volume of 100 μl for 1 h at R.T. Finally, 100 μl/well working dilution (1:10000 in Blocker solution) of Streptavidin-HRP were added to each well and incubated for 1 h at R.T.
(§9) Plates were washed λ6 times with PBS-Tween (0.4%) and 100 μl/well of TMB/E Solution (CHEMICON, Catalog #ES001) was added. The plates were then exposed until blue color appeared in the wells of the positive control and no color was detected in the blank wells. To stop the color reaction, 50 μl/well of 10% of Sulfuric acid was added. The plates were counted in ELISA-Reader using a 450 nm filter.

[7] = tested on: T-Cell specific subpopulation (Clones); assay: ELISA of cytokine secretion by the T-cell specific subpopulation (clones) stimulated with peptides; conditions: two experiments, four donors
Description: as §4, §7, §8, §9, §5, §6

Sequence | PBL Index of stimulation (SI) Direct no APC [1] | Optimal dose Direct no APC [1] | Peak of Proliferation (Hours) Direct no APC [1] | PBL Index of stimulation (SI) via PBMC [2] | Optimal dose via PBMC [2] | Peak of Proliferation (Hours) via PBMC [2] | PBL Index of stimulation (SI) via DC [3] | Optimal dose via DC [3] | Peak of Proliferation (Hours) via DC [3] | peak of proliferation / maximum stimulation [4] | IS (Average) [5] | IS (Range) [5] | IFN-gamma [6] | IL-2 [6] | TNF-Alfa [6] | IL-2 % of clones [7] | INF-gamma % of clones [7] | TNF-Alfa % of clones [7] | TNF-Alfa Range [7] | IS (SI of the peptides as indicated in Table 7) [3] | further results
ALCRWGLLL [VXL-8, reference compound] | 0 | No Influence | No proliferation | 1.5 | 0.05 to 1 µg/mL | 120 h | 1.75 | 12.5-25 × × 10e6/well | 120 h | 120 h |  |  |  |  |  |  |  |  |  |  | 
LLLLTVLTV [VXL-2, LLLLTVLTV] | 0 | No Influence | No proliferation | 1.2 | 0.05 to 1 µg/mL | 120 h | 2.2 | 12.5-25 × × 10e6/well | 120 h | 120 h | 3.275 | 1.45-5.1 | 0 ng/mL | 0 ng/mL | 0 ng/mL | 50% | 25% | 83% | 1.9 to 9.4 ng/mL | 2.2 | IL-2 Range [7]: 2.53 to 10.2 ng/mL; INF-gamma Range [7]: 1.4 to 8.9 ng/mL; IL-2 Range ng/ml ([7]; listed as VXL2): high; INF-gamma Range ng/ml ([7]; listed as VXL2): high
LLLTVLTVV [VXL-1, LLLTVLTVV] | 0 | No Influence | No proliferation | 1.59 | 0.05 to 1 µg/mL | 120 h |  | 12.5-25 × × 10e6/well | 120 h | 120 h | 3.05 | 1.66-4.4 | 0 ng/mL | 0 ng/mL |  | 83% | 33% | 83% | 2.7 to 9.8 ng/mL | 3.2 | PBL Index of stimulation (SI) via DC ([3]; listed as VLX-1): 3.2
TQSPFFLLL [VXL-4, TQSPFFLLL] | 0 | No Influence | No proliferation | 1.45 |  | 72-96 h^ | 3.74 | 12.5-25 × × 10e6/well | 72-96 h^ |  | 2.665 | 2.4-2.93 | 0 ng/mL | 0 ng/mL | 17.1 ng/mL | 33% | 33% | 58% | 3.1 to 9.8 ng/mL | 3.4 | TNF-Alfa ([6]; listed as VXL4): highest cytokine release; IL-2 Range [7]: 3.8 to 8.7 ng/mL; INF-gamma Range [7]: 2.6 to 8.4 ng/mL; IL-2 Range ng/ml ([7]; listed as VXL4): high; INF-gamma Range ng/ml ([7]; listed as VXL4): high
